Tested on: 624824-186-R-J2-PDC multicell spheroids, viability
Test: Anticancer human tumor 624824-186-R-J2-PDC patient-derived colon adenocarcinoma cell line growth inhibition [PI3K]
Conditions: for viability, T/C: stronger effect = lower value
In short: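 Combination activity was assessed by viability in multicellular tumor spheroids carrying HUVEC and MSC components. Agents were tested with PI3K inhibitors from a Cmax-based top dose (or 10 microM) downward in half-log increments.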

[1] = curve of first compound, second compound 0.00316 µM
[2] = curve of first compound, second compound 0.01 µM
[3] = curve of first compound, second compound 0.0316 µM
[4] = curve of first compound, second compound 0.1 µM
[5] = curve of first compound, second compound 0.316 µM
[6] = curve of first compound, second compound 1 µM
[7] = second compound 0.00316 µM, first compound 0.0316 µM
[8] = second compound 0.00316 µM, first compound 0.1 µM
[9] = second compound 0.00316 µM, first compound 0.316 µM
[10] = second compound 0.00316 µM, first compound 1 µM
[11] = second compound 0.00316 µM, first compound 3.16 µM
[12] = second compound 0.00316 µM, first compound 10 µM
[13] = second compound 0.01 µM, first compound 0.0316 µM
[14] = second compound 0.01 µM, first compound 0.1 µM
[15] = second compound 0.01 µM, first compound 0.316 µM
[16] = second compound 0.01 µM, first compound 1 µM
[17] = second compound 0.01 µM, first compound 3.16 µM
[18] = second compound 0.01 µM, first compound 10 µM
[19] = second compound 0.0316 µM, first compound 0.0316 µM
[20] = second compound 0.0316 µM, first compound 0.1 µM
[21] = second compound 0.0316 µM, first compound 0.316 µM
[22] = second compound 0.0316 µM, first compound 1 µM
[23] = second compound 0.0316 µM, first compound 3.16 µM
[24] = second compound 0.0316 µM, first compound 10 µM
[25] = second compound 0.1 µM, first compound 0.0316 µM
[26] = second compound 0.1 µM, first compound 0.1 µM
[27] = second compound 0.1 µM, first compound 0.316 µM
[28] = second compound 0.1 µM, first compound 1 µM
[29] = second compound 0.1 µM, first compound 3.16 µM
[30] = second compound 0.1 µM, first compound 10 µM
[31] = second compound 0.316 µM, first compound 0.0316 µM
[32] = second compound 0.316 µM, first compound 0.1 µM
[33] = second compound 0.316 µM, first compound 0.316 µM
[34] = second compound 0.316 µM, first compound 1 µM
[35] = second compound 0.316 µM, first compound 3.16 µM
[36] = second compound 0.316 µM, first compound 10 µM
[37] = second compound 1 µM, first compound 0.0316 µM
[38] = second compound 1 µM, first compound 0.1 µM
[39] = second compound 1 µM, first compound 0.316 µM
[40] = second compound 1 µM, first compound 1 µM
[41] = second compound 1 µM, first compound 3.16 µM
[42] = second compound 1 µM, first compound 10 µM
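Further: spheroids exposed to agents for 7 days before viability read.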
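Wherever viability, T/C is given: 100% = DMSO vehicle treated spheroids.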

In the case of `CC1(C)CCC(CN2CCN(c3ccc(C(=O)NS(=O)(=O)c4ccc(NCC5CCOCC5)c([N+](=O)[O-])c4)c(Oc4cnc5[nH]ccc5c4)c3)CC2)=C(c2ccc(Cl)cc2)C1` + COc1c(OCCCN2CCOCC2)ccc2c3n(c(=NC(=O)c4cnc(N)nc4)nc12)CCN3, the IC50 [1] is reported as > 10 µM, the IC50 [2] is reported as > 10 µM and the IC50 [3] is reported as > 10 µM. For the same compound, the IC50 [4] was 6.81 µM, the IC50 [5] was 4.68 µM and the IC50 [6] was 4.7 µM. The viability, T/C [7] was 78.7%, the viability, T/C [8] was 82.4% and the viability, T/C [9] was 81.6%. For the same compound, the viability, T/C [10] was 98%, the viability, T/C [11] was 70.5% and the viability, T/C [12] was 61%. The viability, T/C [13] was 99%, the viability, T/C [14] was 83.5% and the viability, T/C [15] was 83.1%. For the same compound, the viability, T/C [16] was 94.9%, the viability, T/C [17] was 78.2% and the viability, T/C [18] was 57.5%. The viability, T/C [19] was 84.3%, the viability, T/C [20] was 90.5% and the viability, T/C [21] was 82.6%. The viability, T/C [22] was 90.7%, the viability, T/C [23] was 78.7% and the viability, T/C [24] was 50.2%. For the same compound, the viability, T/C [25] was 69%, the viability, T/C [26] was 76.8% and the viability, T/C [27] was 84.8%. For the same compound, the viability, T/C [28] was 78.4%, the viability, T/C [29] was 73.1% and the viability, T/C [30] was 38.2%. For the same compound, the viability, T/C [31] was 60%, the viability, T/C [32] was 65.7% and the viability, T/C [33] was 72.1%. It also gave a viability, T/C [34] of 67.9%, a viability, T/C [35] of 60.5% and a viability, T/C [36] of 28.2%. For the same compound, the viability, T/C [37] was 64.7%, the viability, T/C [38] was 62.3% and the viability, T/C [39] was 63.2%. The viability, T/C [40] was 61.4%, the viability, T/C [41] was 64.7% and the viability, T/C [42] was 24.8%.

`Cn1cnc2c(F)c(Nc3ccc(Br)cc3Cl)c(C(=O)NOCCO)cc21` was tested, and the viability, T/C (compound 0.00949 µM) was 85.4% [middle of 4 runs], the viability, T/C (compound 0.949 µM) was 79.5% [middle of 4 runs] and the IC50 (curve of compound) was > 3 µM.

`CC1(C)CCC(Nc2ncc(C(F)(F)F)c(-c3c[nH]c4c(P(C)(C)=O)c(C#N)ccc34)n2)CN1` (centres undefined) + CC(Nc1ccc2c(c1)OCCn1cc(N3C(=O)OCC3C(F)F)nc1-2)C(N)=O was tested, and the IC50 [1] was 3.92 µM, the IC50 [2] was 3.61 µM and the IC50 [3] was 4.16 µM. For the same compound, the IC50 [4] was 3.16 µM, the IC50 [5] was 3.46 µM and the IC50 [6] was 3.23 µM. The viability, T/C [7] was 73.8%, the viability, T/C [8] was 84.7% and the viability, T/C [9] was 86.4%. It also gave a viability, T/C [10] of 98.7%, a viability, T/C [11] of 59.7% and a viability, T/C [12] of 7.81%. For the same compound, the viability, T/C [13] was 71.8%, the viability, T/C [14] was 70.3% and the viability, T/C [15] was 85%. For the same compound, the viability, T/C [16] was 99.8%, the viability, T/C [17] was 55.6% and the viability, T/C [18] was 7.27%. The viability, T/C [19] was 66.1%, the viability, T/C [20] was 72.4% and the viability, T/C [21] was 93.3%. It also gave a viability, T/C [22] of 108%, a viability, T/C [23] of 63.9% and a viability, T/C [24] of 5.65%. The viability, T/C [25] was 74.4%, the viability, T/C [26] was 85.3% and the viability, T/C [27] was 87.1%. For the same compound, the viability, T/C [28] was 105%, the viability, T/C [29] was 50% and the viability, T/C [30] was 5.2%. It also gave a viability, T/C [31] of 68.2%, a viability, T/C [32] of 81.9% and a viability, T/C [33] of 90.2%. It also gave a viability, T/C [34] of 93.7%, a viability, T/C [35] of 53.9% and a viability, T/C [36] of 4.99%. For the same compound, the viability, T/C [37] was 78.5%, the viability, T/C [38] was 83.1% and the viability, T/C [39] was 91.1%. It also gave a viability, T/C [40] of 72.9%, a viability, T/C [41] of 51.5% and a viability, T/C [42] of 5.93%.

`CNC(=O)c1ccc(N2C(=S)N(c3ccc(C#N)c(C(F)(F)F)c3)C(=O)C2(C)C)cc1F` + CC(Nc1ncnc2nc[nH]c12)c1cc2cccc(Cl)c2c(=O)n1-c1ccccc1 was tested, and the IC50 [3] was > 10 µM, the IC50 [4] was > 10 µM and the IC50 [5] was > 10 µM. For the same compound, the IC50 [6] was > 10 µM, the IC50 (curve of first compound, second compound 3.16 µM) was > 10 µM and the IC50 (curve of first compound, second compound 10 µM) was > 10 µM. For the same compound, the viability, T/C [19] was 94.8%, the viability, T/C [20] was 95.8% and the viability, T/C [21] was 74.2%. For the same compound, the viability, T/C [22] was 98.4%, the viability, T/C [23] was 102% and the viability, T/C [24] was 116%. The viability, T/C [25] was 104%, the viability, T/C [26] was 101% and the viability, T/C [27] was 100%. The viability, T/C [28] was 95.8%, the viability, T/C [29] was 86.5% and the viability, T/C [30] was 124%. For the same compound, the viability, T/C [31] was 106%, the viability, T/C [32] was 114% and the viability, T/C [33] was 78.8%. It also gave a viability, T/C [34] of 95.4%, a viability, T/C [35] of 93.1% and a viability, T/C [36] of 101%. The viability, T/C [37] was 94.9%, the viability, T/C [38] was 92.2% and the viability, T/C [39] was 101%. For the same compound, the viability, T/C [40] was 84.4%, the viability, T/C [41] was 122% and the viability, T/C [42] was 117%. It also gave a viability, T/C (second compound 3.16 µM, first compound 0.0316 µM) of 115%, a viability, T/C (second compound 3.16 µM, first compound 0.1 µM) of 79.2% and a viability, T/C (second compound 3.16 µM, first compound 0.316 µM) of 91.1%. For the same compound, the viability, T/C (second compound 3.16 µM, first compound 1 µM) was 127%, the viability, T/C (second compound 3.16 µM, first compound 3.16 µM) was 83.2% and the viability, T/C (second compound 3.16 µM, first compound 10 µM) was 96.9%. For the same compound, the viability, T/C (second compound 10 µM, first compound 0.0316 µM) was 101%, the viability, T/C (second compound 10 µM, first compound 0.1 µM) was 120% and the viability, T/C (second compound 10 µM, first compound 0.316 µM) was 107%. For the same compound, the viability, T/C (second compound 10 µM, first compound 1 µM) was 90.7%, the viability, T/C (second compound 10 µM, first compound 3.16 µM) was 101% and the viability, T/C (second compound 10 µM, first compound 10 µM) was 117%.

Reference: PubChem BioAssay AID1963975 (Molecular Pharmacology Branch, DTP, NCI, 2024)
